The text below walks through data of patent US20010031790A1, “Treatment for complications of type 2 diabetes” (priority 1999, published 2001).

The nature of this test: Clinical comparison of patient groups: plasma MG, D-lactate and HbA1c in type 2 diabetic subjects receiving low or high daily dosages of metformin. The conditions noted are these: for DL (D-lactate) / HbA1c / MG (plasma methylglyoxal level): diabetic subjects. Type of test: in vivo, human. An excerpt:
The differences noted above are shown in the following summary of clinical results utilizing patient groups of individuals free of diabetes, those having diabetes but receiving no metformin, those having diabetes and receiving one gram or less of metformin daily and those receiving more than a gram of metformin daily, respectively. In Table 1, the number of patients in each group is noted as are the levels of plasma MG, DL(D-lactate) and […] (HbA1c).

Each structure is given as a SMILES string. Entries after “also recorded” stand apart in the source; their conditions may differ. Marks after values point to notes of the source that are not given here.

In the case of `CN(C)C(=N)N=C(N)N` [Metformin, N,N-dimethylimidocarbonimide diamide], for the setting “metformin >1 g/day, n=13”, the “DL (D-lactate)” value is on record as 13.4 ± 4.6^c μmol/l, the HbA1c amounted to 8.3 ± 1.0% and the “MG (plasma methylglyoxal level)” value is given as 158.4 ± 44.2^b nmol/l. For the setting “metformin ≦1 g/day, n=17”, the “DL (D-lactate)” value is 13.8 ± 7.7^c μmol/l, the HbA1c amounted to 8.0 ± 1.1% and the “MG (plasma methylglyoxal level)” value came out at 210.9 ± 51.0 nmol/L. Also, the “plasma level of MG, result in words” value (group taking high dosages of metformin, versus low dosage group and diabetics without metformin) was “significant lowering of plasma levels of MG; also recorded: significantly lower plasma level of MG”. In addition, the “difference in glycemic control between high and low dosages” value (high versus low dosage groups of metformin) is “little difference in glycemic control”. In addition, for the setting “metformin administration versus diabetic control group receiving no metformin, no significant difference between high and low dosages”, the “levels of D-lactate, result in words” value is “increased”.
